Broadly, the inhibition is the share of the control response that was lost under treatment. Lower therefore signals a response near the control. A word on the IC50: it is the concentration needed to halve the response being measured.

For three compounds, Activity, inhibition and IC50 results are on record in ChEMBL document CHEMBL5365438, “2-Substituted 1,5-benzothiazepine-based HDAC inhibitors exert anticancer activities on human solid and acute myeloid leukemia cell lines” (Bioorg Med Chem, 2023).

The test system of assay [1] is U-937. Description: Induction of apoptosis in human U-937 cells assessed as increased p21 protein expression level at 1 to 5 uM incubated for 24 hrs by immunoblotting analysis. The format is functional, cell-based. Particulars: dose 1-5 µM. (In general: Immunoblotting shows a protein as a band on a membrane.)
Assay [2] has as its target T1, Histone deacetylase (Homo sapiens) (UniProt Q13547+O15379+Q9UBN7+Q92769+Q9UQL6+Q8WUI4+Q9BY41+Q96DB2+P56524+Q9UKV0+Q969S8). Description: Inhibition of HDAC in human U-937 cells assessed as upregulation of histone H3 acetylation at lysine 14 residue at 5 uM incubated for 24 hrs by immunoblotting analysis. The format is cell-based.
Assay [3] has as its target T2, Protein deacetylase HDAC6 (Homo sapiens) (UniProt Q9UBN7).
T2 sequence (whole entry): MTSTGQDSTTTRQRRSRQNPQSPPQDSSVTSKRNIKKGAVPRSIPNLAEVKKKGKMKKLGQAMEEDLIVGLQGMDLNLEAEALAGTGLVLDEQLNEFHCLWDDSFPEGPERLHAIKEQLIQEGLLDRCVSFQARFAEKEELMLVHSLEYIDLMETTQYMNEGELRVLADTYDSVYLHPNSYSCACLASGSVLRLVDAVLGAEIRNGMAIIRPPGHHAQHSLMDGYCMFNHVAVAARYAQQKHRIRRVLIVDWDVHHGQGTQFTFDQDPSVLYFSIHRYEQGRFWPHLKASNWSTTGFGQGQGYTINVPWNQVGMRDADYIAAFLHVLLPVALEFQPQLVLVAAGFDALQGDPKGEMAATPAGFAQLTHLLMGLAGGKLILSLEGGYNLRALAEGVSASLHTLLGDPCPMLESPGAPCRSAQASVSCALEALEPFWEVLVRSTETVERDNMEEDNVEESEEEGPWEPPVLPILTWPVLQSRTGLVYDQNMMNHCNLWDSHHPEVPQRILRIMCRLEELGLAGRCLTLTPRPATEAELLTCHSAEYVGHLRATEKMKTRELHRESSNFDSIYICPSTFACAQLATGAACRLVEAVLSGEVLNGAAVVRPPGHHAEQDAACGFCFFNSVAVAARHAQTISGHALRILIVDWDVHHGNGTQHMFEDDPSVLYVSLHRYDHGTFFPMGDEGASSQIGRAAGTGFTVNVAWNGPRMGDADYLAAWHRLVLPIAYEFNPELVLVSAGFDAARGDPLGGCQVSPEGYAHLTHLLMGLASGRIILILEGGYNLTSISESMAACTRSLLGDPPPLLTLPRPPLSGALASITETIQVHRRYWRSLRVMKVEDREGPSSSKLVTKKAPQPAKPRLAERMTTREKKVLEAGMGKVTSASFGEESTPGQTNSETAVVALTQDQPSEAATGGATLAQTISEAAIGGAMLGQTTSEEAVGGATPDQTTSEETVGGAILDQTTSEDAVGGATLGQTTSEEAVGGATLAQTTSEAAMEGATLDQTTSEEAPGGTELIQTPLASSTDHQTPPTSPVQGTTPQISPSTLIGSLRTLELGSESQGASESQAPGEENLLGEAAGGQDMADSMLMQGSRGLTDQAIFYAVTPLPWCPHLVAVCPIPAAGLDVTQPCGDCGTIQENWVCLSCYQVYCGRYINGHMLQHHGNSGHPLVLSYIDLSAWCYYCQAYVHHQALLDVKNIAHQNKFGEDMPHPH
Description: Inhibition of HDAC6 (unknown origin) at 10 uM using fluorogenic peptide as substrate pre-incubated for 15 mins followed by substrate addition incubated for 30 mins by fluorescence assay. Particulars: time 45.0 min.

Assay [4] has as its target T1, Histone deacetylase (Homo sapiens). The assay is described as follows: Inhibition of HDAC in human U-937 cells assessed as upregulation of acetyl alpha-tubulin level at 5 uM incubated for 24 hrs by immunoblotting analysis. The format is cell-based.
Assay [5] has the same target. The assay is described as follows: Inhibition of HDAC in human HCT-116 cells assessed as upregulation of histone H3 acetylation at lysine 14 residue at 1 uM incubated for 24 hrs by immunoblotting analysis. The format is cell-based.
In assay [6] the test system is HCT-116. Description: Induction of apoptosis in human HCT-116 cells assessed as increased p21 protein expression level at 1 to 5 uM incubated for 24 hrs by immunoblotting analysis. Particulars: dose 1-5 µM. In kind it is functional, cell-based.
Assay [7] deals with HCT-116. The assay is described as follows: Induction of cell cycle arrest in human HCT-116 assessed as accumulation of cells in G2/M phase at 1 to 5 uM incubated for 24 hrs by FACS analysis relative to SAHA. In kind it is functional. Particulars: dose 1-5 µM.
Assay [8] concerns the target Histone deacetylase. The format is subcellular, Homo sapiens, Nucleus. To be noted: hela.
Description: Inhibition of HDAC in human HeLa cell nuclear extract using Kac fluorogenic peptide as substrate containing residues 379-382 of p53 by fluorescence assay
Assay [9] concerns HCT-116. Description: Cytotoxicity against human HCT-116 cells assessed as cell viability incubated for 24 hrs by MTT assay. In kind it is functional, cell-based. To be noted: HCT-116, 24 h. On the technique in general: Formazan colour is commonly taken as a measure of viable cells.
The subject of assay [10] is HCT-116. Description: Induction of cell cycle arrest in human HCT-116 assessed as decrease accumulation of cells in G1 phase at 1 to 5 uM incubated for 24 hrs by FACS analysis. In kind it is functional, cell-based. To be noted: dose 1-5 µM.
Assay [11] deals with U-937. Description: Cytotoxicity against human U-937 cells assessed as cell viability incubated for 24 hrs by MTT assay. In kind it is functional, cell-based. Particulars: U-937, 24 h.
The test system of assay [12] is HCT-116. The assay is described as follows: Induction of cell cycle arrest in human HCT-116 assessed as decrease accumulation of cells in S phase at 1 to 5 uM incubated for 24 hrs by FACS analysis. In kind it is functional, cell-based. To be noted: dose 1-5 µM.
Assay [13] has as its system U-937. The assay is described as follows: Induction of cell cycle arrest in human U-937 assessed as increase accumulation of cells in G2/M phase at 1 to 5 uM incubated for 24 hrs by FACS analysis. The format is functional, cell-based. Particulars: dose 1-5 µM. In general terms: In flow cytometry, cells or beads pass a laser one at a time.
Assay [14] deals with T3, Protein deacetylase HDAC6 (Homo sapiens, UniProt Q9UBN7).
T3 sequence (Q9UBN7 whole entry): T2 sequence (whole entry)
The assay is described as follows: Inhibition of HDAC6 (unknown origin) using fluorogenic peptide as the substrate containing residues 379-382 of p53at 10 uM pre-incubated for 15 mins followed by substrate addition incubated for 30 mins by multimode plate reader.

In assay [15] the target is T4, Histone deacetylase 1 (Homo sapiens, UniProt Q13547). Description: Inhibition of HDAC1 (unknown origin) at 10 uM using fluorogenic peptide as substrate pre-incubated for 15 mins followed by substrate addition incubated for 30 mins by fluorescence assay relative to control. To be noted: time 45.0 min.
The target in assay [16] is T1, Histone deacetylase (Homo sapiens). Description: Inhibition of HDAC in human U-937 cells assessed as upregulation of histone H3 acetylation at lysine 14 residue at 1 uM incubated for 24 hrs by immunoblotting analysis. The format is cell-based.
The target of assay [17] is T4, Histone deacetylase 1. Description: Inhibition of HDAC1 (unknown origin) using fluorogenic peptide as the substrate containing residues 379-382 of p53 pre-incubated for 15 mins followed by substrate addition incubated for 30 mins by multimode plate reader.
The test system of assay [18] is U-937. Description: Induction of cell cycle arrest in human U-937 assessed as decrease accumulation of cells in G1 phase at 1 to 5 uM incubated for 24 hrs by FACS analysis. The format is functional, cell-based. Particulars: dose 1-5 µM.
The subject of assay [19] is U-937. Description: Cytotoxicity against human U-937 cells assessed as cell death at 1 to 5 uM incubated for 24 hrs by PI staining based FACS analysis relative to control. The format is functional. Particulars: dose 1-5 µM.
The target of assay [20] is T1, Histone deacetylase (Homo sapiens). Description: Inhibition of HDAC in human HCT-116 cells assessed as upregulation of acetyl alpha-tubulin level at 1 to 5 uM incubated for 24 hrs by immunoblotting analysis. In kind it is cell-based. To be noted: dose 1-5 µM.
The test system of assay [21] is U-937. Description: Induction of cell cycle arrest in human U-937 assessed as decrease accumulation of cells in S phase at 1 to 5 uM incubated for 24 hrs by FACS analysis. In kind it is functional, cell-based. Particulars: dose 1-5 µM.
Assay [22] concerns U-937. The assay is described as follows: Induction of cell cycle arrest in human U-937 assessed as decrease accumulation of cells in G1 phase at 5 uM incubated for 24 hrs by FACS analysis. The format is functional, cell-based.
Assay [23] concerns the target Histone deacetylase 3 (Homo sapiens) (UniProt O15379). The assay is described as follows: Inhibition of HDAC3 (unknown origin) at 10 uM using fluorogenic peptide as substrate pre-incubated for 15 mins followed by substrate addition incubated for 30 mins by fluorescence assay. To be noted: time 45.0 min.
The target in assay [24] is T5, Histone deacetylase 8 (Homo sapiens) (UniProt Q9BY41).
T5 sequence (whole entry): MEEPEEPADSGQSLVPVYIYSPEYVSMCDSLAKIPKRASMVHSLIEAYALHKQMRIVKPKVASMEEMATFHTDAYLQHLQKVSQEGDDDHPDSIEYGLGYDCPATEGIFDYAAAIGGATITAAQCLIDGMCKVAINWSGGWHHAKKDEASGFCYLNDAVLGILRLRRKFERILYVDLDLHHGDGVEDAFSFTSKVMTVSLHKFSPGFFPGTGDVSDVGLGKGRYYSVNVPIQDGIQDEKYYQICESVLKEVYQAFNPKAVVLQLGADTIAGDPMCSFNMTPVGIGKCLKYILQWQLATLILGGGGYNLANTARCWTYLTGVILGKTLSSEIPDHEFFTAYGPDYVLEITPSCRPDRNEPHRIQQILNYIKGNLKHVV
The assay is described as follows: Inhibition of HDAC8 (unknown origin) at 10 uM using fluorogenic peptide as substrate pre-incubated for 15 mins followed by substrate addition incubated for 30 mins by fluorescence assay. To be noted: time 45.0 min.

In assay [25] the test system is U-937. The assay is described as follows: Cytotoxicity against human U-937 cells assessed as cell death at 5 uM incubated for 24 hrs by PI staining based FACS analysis relative to control. The format is functional.
The subject of assay [26] is U-937. Description: Induction of cell cycle arrest in human U-937 assessed as reduced accumulation of cells in S phase at 1 uM incubated for 24 hrs by FACS analysis. In kind it is functional, cell-based.
In assay [27] the target is Histone deacetylase 4 (Homo sapiens) (UniProt P56524). Description: Inhibition of HDAC4 (unknown origin) at 10 uM using fluorogenic peptide as substrate pre-incubated for 15 mins followed by substrate addition incubated for 30 mins by fluorescence assay. Particulars: time 45.0 min.
Assay [28] relates to U-937. The assay is described as follows: Cytotoxicity against human U-937 cells assessed as cell death at 1 uM incubated for 24 hrs by PI staining based FACS analysis relative to control. The format is functional.
Assay [29] has as its target Histone deacetylase 2 (Homo sapiens) (UniProt Q92769). The assay is described as follows: Inhibition of HDAC2 (unknown origin) at 10 uM using fluorogenic peptide as substrate pre-incubated for 15 mins followed by substrate addition incubated for 30 mins by fluorescence assay. Particulars: time 45.0 min.
Assay [30] concerns HCT-116. The assay is described as follows: Induction of cell cycle arrest in human HCT-116 assessed as accumulation of cells in G2/M phase at 5 uM incubated for 24 hrs by FACS analysis. The format is functional, cell-based.
Assay [31] has as its system U-937. The assay is described as follows: Induction of cell cycle arrest in human U-937 assessed as increase accumulation of cells in G2/M phase at 5 uM incubated for 24 hrs by FACS analysis. The format is functional, cell-based.
For assay [32], the system named is U-937. Description: Induction of cell cycle arrest in human U-937 assessed as decrease accumulation of cells in S phase at 5 uM incubated for 24 hrs by FACS analysis. The format is functional, cell-based.

The source made the active and inactive calls. The rule behind the calls is not given here.

T4 sequence (Q13547 whole entry): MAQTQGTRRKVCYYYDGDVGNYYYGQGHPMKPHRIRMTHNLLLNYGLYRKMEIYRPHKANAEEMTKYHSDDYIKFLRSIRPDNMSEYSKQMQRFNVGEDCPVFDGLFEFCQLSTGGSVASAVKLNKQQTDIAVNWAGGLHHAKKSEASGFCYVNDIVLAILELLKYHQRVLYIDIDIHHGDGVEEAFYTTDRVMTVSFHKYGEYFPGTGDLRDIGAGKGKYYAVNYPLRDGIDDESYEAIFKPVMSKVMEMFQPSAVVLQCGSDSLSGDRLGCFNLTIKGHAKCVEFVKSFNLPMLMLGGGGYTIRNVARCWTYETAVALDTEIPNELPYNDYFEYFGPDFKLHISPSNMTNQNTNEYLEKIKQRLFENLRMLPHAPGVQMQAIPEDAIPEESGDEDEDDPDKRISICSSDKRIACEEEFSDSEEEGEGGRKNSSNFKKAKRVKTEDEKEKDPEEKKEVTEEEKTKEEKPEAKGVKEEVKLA
Sequence of Histone deacetylase 4 (Homo sapiens) (P56524 whole entry): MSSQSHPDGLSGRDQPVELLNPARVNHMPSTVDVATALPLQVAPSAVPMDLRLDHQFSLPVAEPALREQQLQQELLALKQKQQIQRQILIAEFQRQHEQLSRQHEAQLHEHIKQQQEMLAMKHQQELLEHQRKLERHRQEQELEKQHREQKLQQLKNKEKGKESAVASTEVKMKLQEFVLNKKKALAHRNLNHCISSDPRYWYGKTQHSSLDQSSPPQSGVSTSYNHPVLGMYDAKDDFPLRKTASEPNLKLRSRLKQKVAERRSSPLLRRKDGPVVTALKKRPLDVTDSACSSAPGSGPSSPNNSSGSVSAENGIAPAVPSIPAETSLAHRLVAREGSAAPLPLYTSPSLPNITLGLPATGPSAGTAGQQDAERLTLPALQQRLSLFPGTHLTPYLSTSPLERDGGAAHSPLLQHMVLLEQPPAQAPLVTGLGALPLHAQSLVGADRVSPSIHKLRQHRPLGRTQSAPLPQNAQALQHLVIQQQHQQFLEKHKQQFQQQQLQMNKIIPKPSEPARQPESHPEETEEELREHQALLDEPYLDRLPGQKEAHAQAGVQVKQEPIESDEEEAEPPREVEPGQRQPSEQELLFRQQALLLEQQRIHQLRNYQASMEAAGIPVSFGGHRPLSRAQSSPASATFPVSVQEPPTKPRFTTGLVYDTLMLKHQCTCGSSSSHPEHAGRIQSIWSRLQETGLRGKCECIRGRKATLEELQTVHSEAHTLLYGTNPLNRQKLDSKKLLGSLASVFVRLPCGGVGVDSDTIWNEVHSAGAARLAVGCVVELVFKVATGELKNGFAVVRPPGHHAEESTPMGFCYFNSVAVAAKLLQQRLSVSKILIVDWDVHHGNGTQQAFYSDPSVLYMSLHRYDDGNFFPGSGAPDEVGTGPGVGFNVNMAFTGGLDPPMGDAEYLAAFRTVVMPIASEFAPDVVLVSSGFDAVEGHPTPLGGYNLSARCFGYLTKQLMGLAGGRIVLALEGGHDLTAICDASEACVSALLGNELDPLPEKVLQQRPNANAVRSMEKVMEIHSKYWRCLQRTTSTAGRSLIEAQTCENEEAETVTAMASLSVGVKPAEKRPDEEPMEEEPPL
Sequence of Histone deacetylase 2 (Homo sapiens) (Q92769 whole entry): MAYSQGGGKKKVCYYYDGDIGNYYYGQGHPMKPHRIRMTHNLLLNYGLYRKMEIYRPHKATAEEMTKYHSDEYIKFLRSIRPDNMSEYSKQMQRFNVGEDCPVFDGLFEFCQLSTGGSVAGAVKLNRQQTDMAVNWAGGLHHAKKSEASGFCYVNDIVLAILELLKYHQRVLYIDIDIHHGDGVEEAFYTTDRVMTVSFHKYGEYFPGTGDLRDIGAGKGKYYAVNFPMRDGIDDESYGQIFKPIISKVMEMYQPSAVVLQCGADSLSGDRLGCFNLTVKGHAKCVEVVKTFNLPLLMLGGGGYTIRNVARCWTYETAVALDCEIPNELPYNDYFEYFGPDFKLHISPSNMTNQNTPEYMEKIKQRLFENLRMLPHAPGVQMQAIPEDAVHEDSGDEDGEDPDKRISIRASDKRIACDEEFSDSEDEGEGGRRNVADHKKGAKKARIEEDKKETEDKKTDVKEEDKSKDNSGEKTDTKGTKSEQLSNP
Sequence of Histone deacetylase 3 (Homo sapiens) (O15379 whole entry): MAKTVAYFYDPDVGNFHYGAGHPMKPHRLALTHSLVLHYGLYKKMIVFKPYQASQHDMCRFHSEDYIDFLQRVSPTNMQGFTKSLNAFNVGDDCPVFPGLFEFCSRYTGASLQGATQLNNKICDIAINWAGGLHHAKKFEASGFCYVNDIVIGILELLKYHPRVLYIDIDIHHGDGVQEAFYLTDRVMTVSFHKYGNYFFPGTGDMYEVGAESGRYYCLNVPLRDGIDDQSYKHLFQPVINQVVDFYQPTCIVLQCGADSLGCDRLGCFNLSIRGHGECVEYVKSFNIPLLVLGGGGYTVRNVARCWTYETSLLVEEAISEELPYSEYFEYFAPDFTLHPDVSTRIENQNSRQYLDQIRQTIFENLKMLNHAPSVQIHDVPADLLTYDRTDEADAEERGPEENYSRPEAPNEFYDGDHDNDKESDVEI

As to `O=C(CCCCCN1C(=O)CC(c2ccc(Cl)c(Cl)c2)S(=O)(=O)c2ccccc21)NO` (racemic), the outcome in assay [1], in assay [2], in assay [4], in assay [5], in assay [6] and in assay [7] was Active. Also, the outcome in [10], in assay [12], in assay [13], in assay [16], in [18] and in assay [20] was Active. Also, the outcome in assay [21] was Active. The inhibition in assay [3] was 99.5%; in assay [15], 96.9%. For the same compound, the IC50 in assay [8] came out at 27.1 nM; in [9], 18500 nM; in assay [11], 13900 nM; in assay [14], 12.3 nM; in assay [17] it was 88.2 nM. The Activity in assay [19] was ~6%.
For the compound `O=C(CCCCCN1C(=O)CC(c2ccccc2)S(=O)(=O)c2ccccc21)NO` (racemic), the outcome in assay [22], in [1], in assay [2], in [4], in assay [5] and in [6] was Active. Further, the result in assay [26], in assay [13], in [16] and in [20] was Active. Further, the inhibition was found to be 99.3% in [23]; 87.3% in assay [24]; 98.8% in [3]; 51.4% in [27]; 99.1% in [15]; 100% in assay [29]. Also, the Activity in assay [25] is recorded as ~12%; in assay [7], ~75%; in [28] it was 12%. For the same compound, the figures for the concentration for half-maximal inhibition (IC50) in assay [8], in assay [14] and in assay [17] were 38.6 nM, 23.2 nM and 115 nM, respectively.
Consider `O=C(CCCCCCC(=O)Nc1ccccc1)NO` [VORINOSTAT], for which the outcome in assay [22], in assay [30], in [31] and in assay [32] was Active. Moreover, the Activity in assay [25] is ~10%.
